How the values were obtained:
[1] = test system: MDR1-expressing NIH 3T3 cells; test: Cytotoxicity (MTT) assay: modulation of drug cytotoxicity in multidrug resistant cells; details: compound 5 μM; 50 nM doxorubicin; 72 hours; MTT
P-glycoprotein = P-glycoprotein (Homo sapiens, UniProt P08183); test: Rhodamine 123 transport assay across HCT-8 cell monolayers; details: compound 10 μM; Rh123 15 μM; HCT-8 cells
Chain of P-glycoprotein (P08183 whole entry): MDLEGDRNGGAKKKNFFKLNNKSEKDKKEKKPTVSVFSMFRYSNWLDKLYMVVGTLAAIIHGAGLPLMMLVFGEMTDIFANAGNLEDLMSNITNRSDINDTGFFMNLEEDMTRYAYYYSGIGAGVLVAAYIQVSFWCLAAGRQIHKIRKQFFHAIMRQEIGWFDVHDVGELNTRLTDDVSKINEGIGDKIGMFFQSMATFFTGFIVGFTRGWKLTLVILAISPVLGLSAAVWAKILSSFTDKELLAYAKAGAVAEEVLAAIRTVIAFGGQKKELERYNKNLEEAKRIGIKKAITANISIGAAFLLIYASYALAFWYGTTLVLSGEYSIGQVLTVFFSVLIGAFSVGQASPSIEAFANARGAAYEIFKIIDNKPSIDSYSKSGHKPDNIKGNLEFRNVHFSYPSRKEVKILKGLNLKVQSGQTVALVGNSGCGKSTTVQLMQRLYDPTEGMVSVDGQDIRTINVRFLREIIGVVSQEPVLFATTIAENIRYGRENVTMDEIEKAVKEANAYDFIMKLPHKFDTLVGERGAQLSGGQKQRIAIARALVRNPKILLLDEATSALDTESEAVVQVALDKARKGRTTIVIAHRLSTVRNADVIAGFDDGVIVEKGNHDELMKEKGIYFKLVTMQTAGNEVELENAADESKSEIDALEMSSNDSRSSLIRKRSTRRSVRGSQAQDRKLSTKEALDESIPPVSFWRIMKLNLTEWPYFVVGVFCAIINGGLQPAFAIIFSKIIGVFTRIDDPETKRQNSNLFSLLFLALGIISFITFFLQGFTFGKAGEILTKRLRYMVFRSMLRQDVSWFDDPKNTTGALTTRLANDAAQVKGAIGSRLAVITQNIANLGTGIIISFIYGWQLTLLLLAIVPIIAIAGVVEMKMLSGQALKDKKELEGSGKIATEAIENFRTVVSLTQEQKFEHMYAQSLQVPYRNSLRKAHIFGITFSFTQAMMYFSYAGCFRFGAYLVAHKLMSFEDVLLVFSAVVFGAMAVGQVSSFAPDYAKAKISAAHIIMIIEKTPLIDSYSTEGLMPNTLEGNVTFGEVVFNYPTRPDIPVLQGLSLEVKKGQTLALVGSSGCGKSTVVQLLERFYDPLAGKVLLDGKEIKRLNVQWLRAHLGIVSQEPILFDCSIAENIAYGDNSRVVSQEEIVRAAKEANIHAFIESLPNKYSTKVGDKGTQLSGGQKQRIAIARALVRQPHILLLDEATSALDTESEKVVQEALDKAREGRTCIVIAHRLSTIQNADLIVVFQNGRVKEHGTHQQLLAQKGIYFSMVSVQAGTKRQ
Protocol: The human ileocecal adenocarcinoma cell line HCT-8 was grown in RPMI-1640 medium supplemented with 10% horse serum, 1 mM sodium pyruvate and 0.01 mg/ml gentamicin. All cells were maintained in a humidified atmosphere with 5% CO2 at 37° C.
Rhodamine 123 transport was examined as previously described (Hunter J. et al., Simmons, Br. J. Cancer, 64: 437444 (1991); Kim A. E. et al., J. Pharm. Exp. Ther., 286: 1439-1445 (1998)) using HCT-8 cells. Particularly, cells were grown in 6 well Corning Transwell dishes until a tight monolayer was formed. Rh123 was added at a final concentration of 15 μM to the basal or apical compartments and 200 μl samples were taken at the indicated times from the opposite chamber. Fluorescence of Rh123 in the media samples was measured using a fluorescence plate reader with an excitation wavelength of 485 nm and an emission wavelength of 530 nm.

| Compound | Modulation of Drug Resistance (percentage increase in doxorubicin cytotoxicity in the presence of the compounds versus in their absence) [1] | % Inhibition of R123 Transport (P-glycoprotein) |
| --- | --- | --- |
| COc1ccc(C2c3cc(OC)c(OC)cc3C(CCNC(=O)c3ccc(C(C)(C)C)cc3)C2CNC(=O)c2ccc(C(C)(C)C)cc2)cc1OC (stereo not drawn) [AV-259] | 3.9% | 84.87% |
| COc1ccc(C2c3cc(OC)c(OC)cc3C(CCNC(=O)c3ccc(OC(F)(F)F)cc3)C2CNC(=O)c2ccc(OC(F)(F)F)cc2)cc1OC (stereo not drawn) [AV-260] | 2.1% | 73.84% |
| CCCc1ccc(C(=O)NCCC2c3cc(OC)c(OC)cc3C(c3ccc(OC)c(OC)c3)C2CNC(=O)c2ccc(CCC)cc2)cc1 (stereo not drawn) [AV-262] | 18.0% | 83.47% |
| COc1ccc(C2c3cc(OC)c(OC)cc3C(CCNC(=O)c3ccc(Br)cc3)C2CNC(=O)c2ccc(Br)cc2)cc1OC (stereo not drawn) [AV-263] | 12.2% | 80.78% |
| COc1ccc(C2c3cc(OC)c(OC)cc3C(CCNC(=O)c3ccccc3)C2CNC(=O)c2ccccc2)cc1OC (stereo not drawn) [AV-264] | 6.3% | 83.51% |
| COc1ccc(C2c3cc(OC)c(OC)cc3C(CCNC(=O)c3ccccc3OC)C2CNC(=O)c2ccccc2OC)cc1OC (stereo not drawn) [AV-265] | −0.2% | 93.0% |

From patent US20020128231A1 (priority 2000, published 2002)
